Values quoted from earlier work, collected in patent publication US20010041741A1, “Composition for improvement of cellular nutrition and mitochondrial energetics” (priority 1997, published 2001).
Read-outs that look alike come from different tables or passages of the source. Each block holds one compound with its values, some of them ahead of it.

Assays:
[1] = test system: animals and patients with heart failure or myocardial ischemia; settings: L-carnitine 3-5 grams, proprionyl-1-carnitine 1.5-3.0 grams
[2] = test system: patients suffering from congestive heart failure; settings: oral dose of 1 gram three times per day
[3] = test system: in-patients with heart failure and on long-term furosemide therapy
[4] = not given; remark: listed apart in the source
[5] = test system: patients with heart failure; settings: creatine supplement

Structure (SMILES): CCC(=O)O[C@H](CC(=O)[O-])C[N+](C)(C)C [proprionyl-1-carnitine, Proprionyl-1-carnitine]
Hemodynamics [1]: significant hemodynamic improvement

Structure (SMILES): NCCS(=O)(=O)O [taurine, 2-aminoethanesulfonic acid]
Hemodynamic state and functional capacity [2]: improve both hemodynamic state and functional capacity | Tolerance [2]: extremely well tolerated

Increase of mean steady state level in plasma (after 4 days of dosing at 100 mg 3 times daily): 4-7 fold | Liver enzymes (LDH, SGOT) (doses of 300 mg/day): asymptomatic elevations | T½ of plasma decay (oral): 34 h | Time of plasma level peak (oral absorption): 5 to 10 h | Share of an oral dose taken up by the myocardium (oral, large hepatic first pass effect): 2-5%
Structure (SMILES): COC1=C(OC)C(=O)C(C/C=C(\C)CC/C=C(\C)CC/C=C(\C)CC/C=C(\C)CC/C=C(\C)CC/C=C(\C)CC/C=C(\C)CC/C=C(\C)CC/C=C(\C)CCC=C(C)C)=C(C)C1=O [Ubiquinone, 2,3 dimethoxy-5 methyl-6-decaprenyl benzoquinone]
Side effects (in vivo): virtually absent

Structure (SMILES): Cc1ncc(C[n+]2csc(CCO)c2C)c(N)n1 [thiamine, Thiamine]
Mean left ventricular ejection fraction ([3]; after one week, 200 mg intravenous thiamine): increased significantly | Increase of left ventricular ejection fraction ([3]; after six weeks of oral thiamine supplementation, 200 mg/day): 22% | Diuresis, excretion of sodium and water ([3]; within two days of thiamine supplementation, versus placebo): significant diuresis with increased excretion of sodium and water

Time of peak plasma concentration ([4]; following oral administration): 3 h | T½ of plasma decay ([4]; following oral administration): 3 to 4 h | Bioavailability ([4]; oral): 5-20%
Structure (SMILES): C[N+](C)(C)C[C@H](O)CC(=O)[O-] [L-carnitine, 3-hydroxy-4-N-trimethylaminobutyric acid]
Tolerance / adverse effects ([4]; in vivo): well tolerated and no adverse effects have been described | Hemodynamics [1]: significant hemodynamic improvement

Structure (SMILES): CN(CC(=O)O)C(=N)N [creatine, Creatine]
Cardiac ejection fraction [5]: did not increase | Skeletal muscle creatine phosphate, muscle strength and endurance [5]: significantly increased
